Experimental data: PubChem BioAssay AID1963874 (Molecular Pharmacology Branch, DTP, NCI, 2024)

Tested on: 253994-281-T-J1-PDC KRAS-mutant spheroids with HUVEC/MSC, viability
Assay: Anticancer human tumor 253994-281-T-J1-PDC patient-derived colorectal carcinoma cell line growth inhibition [KRAS2]
Conditions: for viability, T/C: stronger effect = lower value
In short: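 KRAS-mutant tumor cells were grown as spheroids with HUVEC endothelial cells and human MSCs as stroma. Targeted agents were tested alone and with KRAS pathway inhibitors. Doses started at or near clinical Cmax, or 10 microM, descending half-log.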

[1] = curve of first compound, second compound 0.1 µM
[2] = curve of first compound, second compound 0.316 µM
[3] = curve of first compound, second compound 1 µM
[4] = curve of first compound, second compound 3.16 µM
[5] = curve of first compound, second compound 10 µM
[6] = second compound 0.1 µM, first compound 0.0316 µM
[7] = second compound 0.1 µM, first compound 0.1 µM
[8] = second compound 0.1 µM, first compound 0.316 µM
[9] = second compound 0.1 µM, first compound 1 µM
[10] = second compound 0.1 µM, first compound 3.16 µM
[11] = second compound 0.1 µM, first compound 10 µM
[12] = second compound 0.316 µM, first compound 0.0316 µM
[13] = second compound 0.316 µM, first compound 0.1 µM
[14] = second compound 0.316 µM, first compound 0.316 µM
[15] = second compound 0.316 µM, first compound 1 µM
[16] = second compound 0.316 µM, first compound 3.16 µM
[17] = second compound 0.316 µM, first compound 10 µM
[18] = second compound 1 µM, first compound 0.0316 µM
[19] = second compound 1 µM, first compound 0.1 µM
[20] = second compound 1 µM, first compound 0.316 µM
[21] = second compound 1 µM, first compound 1 µM
[22] = second compound 1 µM, first compound 3.16 µM
[23] = second compound 1 µM, first compound 10 µM
[24] = second compound 3.16 µM, first compound 0.0316 µM
[25] = second compound 3.16 µM, first compound 0.1 µM
[26] = second compound 3.16 µM, first compound 0.316 µM
[27] = second compound 3.16 µM, first compound 1 µM
[28] = second compound 3.16 µM, first compound 3.16 µM
[29] = second compound 3.16 µM, first compound 10 µM
[30] = second compound 10 µM, first compound 0.0316 µM
[31] = second compound 10 µM, first compound 0.1 µM
[32] = second compound 10 µM, first compound 0.316 µM
[33] = second compound 10 µM, first compound 1 µM
[34] = second compound 10 µM, first compound 3.16 µM
[35] = second compound 10 µM, first compound 10 µM
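Further: spheroids exposed to agents for seven days before readout.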
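Wherever viability, T/C is given: percent of DMSO vehicle control viability.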

| Compound | IC50 [1] [µM] | IC50 [2] [µM] | IC50 [3] [µM] | IC50 [4] [µM] | IC50 [5] [µM] | viability, T/C [6] [%] | viability, T/C [7] [%] | viability, T/C [8] [%] | viability, T/C [9] [%] | viability, T/C [10] [%] | viability, T/C [12] [%] | viability, T/C [13] [%] | viability, T/C [14] [%] | viability, T/C [15] [%] | viability, T/C [16] [%] | viability, T/C [18] [%] | viability, T/C [19] [%] | viability, T/C [20] [%] | viability, T/C [21] [%] | viability, T/C [22] [%] | further results |
| --- | --- | --- | --- | --- | --- | --- | --- | --- | --- | --- | --- | --- | --- | --- | --- | --- | --- | --- | --- | --- | --- |
| CC1OCC2(CCN(c3cnc(Sc4ccnc(N)c4Cl)c(N)n3)CC2)C1N (stereo unspecified) + C=CC(=O)N1CCN(c2nc(=O)n(-c3c(C)ccnc3C(C)C)c3nc(-c4c(O)cccc4F)c(F)cc23)C(C)C1 | 8.95 | 6.56 | > 10 | 9.85 | > 10 | 89.8 | 87.4 | 81.8 | 82.3 | 70.7 | 89.5 | 88.3 | 89.3 | 70.6 | 60.4 | 84.2 | 90.5 | 77 | 82.7 | 60.6 | viability, T/C [11]: 47.6%; viability, T/C [17]: 44.6%; viability, T/C [23]: 51.6%; viability, T/C [24]: 80.5%; viability, T/C [25]: 74.9%; viability, T/C [26]: 75.6%; viability, T/C [27]: 72.4%; viability, T/C [28]: 63.4%; viability, T/C [29]: 49.8%; viability, T/C [30]: 85.1%; viability, T/C [31]: 75.2%; viability, T/C [32]: 74%; viability, T/C [33]: 69.6%; viability, T/C [34]: 57%; viability, T/C [35]: 51.5% |
| CC1(C)CCC(CN2CCN(c3ccc(C(=O)NS(=O)(=O)c4ccc(NCC5CCOCC5)c([N+](=O)[O-])c4)c(Oc4cnc5[nH]ccc5c4)c3)CC2)=C(c2ccc(Cl)cc2)C1 + C=CC(=O)N1CCN(c2nc(=O)n(-c3c(C)ccnc3C(C)C)c3nc(-c4c(O)cccc4F)c(F)cc23)C(C)C1 | > 10 | > 10 | > 10 | > 10 | > 10 | 107 | 92.5 | 100 | 99.5 | 93.3 | 96.6 | 92.9 | 100 | 98.8 | 87.3 | 100 | 105 | 107 | 100 | 88.1 | viability, T/C [11]: 78.8%; viability, T/C [17]: 71.5%; viability, T/C [23]: 62.7%; viability, T/C [24]: 97.3%; viability, T/C [25]: 99.9%; viability, T/C [26]: 88.8%; viability, T/C [27]: 96.3%; viability, T/C [28]: 84.8%; viability, T/C [29]: 77.9%; viability, T/C [30]: 105%; viability, T/C [31]: 98.3%; viability, T/C [32]: 94.4%; viability, T/C [33]: 89.2%; viability, T/C [34]: 87.9%; viability, T/C [35]: 83.3% |
| Cn1nccc1Nc1nccc(-c2cc3c(s2)C(C)(C)N(CCN2CCOCC2)C3=O)n1 + C=CC(=O)N1CCN(c2nc(=O)n(-c3c(C)ccnc3C(C)C)c3nc(-c4c(O)cccc4F)c(F)cc23)C(C)C1 | 2.39 | 3.04 | 2.77 | 2.48 | 3 | 97.8 | 105 | 85.6 | 68.6 | 45 | 102 | 110 | 86.3 | 78.7 | 46.7 | 90.2 | 87.6 | 81.7 | 73.6 | 46.3 | viability, T/C [11]: 26.1%; viability, T/C [17]: 32.8%; viability, T/C [23]: 26.7%; viability, T/C [24]: 87%; viability, T/C [25]: 94.2%; viability, T/C [26]: 86.4%; viability, T/C [27]: 72.1%; viability, T/C [28]: 44.1%; viability, T/C [29]: 33.8%; viability, T/C [30]: 84.2%; viability, T/C [31]: 80.5%; viability, T/C [32]: 96.7%; viability, T/C [33]: 75%; viability, T/C [34]: 49.6%; viability, T/C [35]: 35.4% |
| CC1COCCN1c1cc(-c2ccnn2C)c2ccnc(-c3ccn[nH]3)c2n1 (stereo unspecified) + C=CC(=O)N1CCN(c2nc(=O)n(-c3c(C)ccnc3C(C)C)c3nc(-c4c(O)cccc4F)c(F)cc23)C(C)C1 | > 3.16 | > 3.16 | > 3.16 | > 3.16 | > 3.16 | 93.9 | 76.9 | 55.7 | 50.6 | 56.5 | 90 | 76.6 | 51.7 | 60.8 | 57.4 | 89 | 72.7 | 61.9 | 59.6 | 57.2 | viability, T/C (second compound 0.1 µM, first compound 0.01 µM): 97.5%; viability, T/C (second compound 0.316 µM, first compound 0.01 µM): 105%; viability, T/C (second compound 1 µM, first compound 0.01 µM): 105%; viability, T/C (second compound 3.16 µM, first compound 0.01 µM): 100%; viability, T/C [24]: 99.6%; viability, T/C [25]: 73.2%; viability, T/C [26]: 51.7%; viability, T/C [27]: 51.4%; viability, T/C [28]: 58.9%; viability, T/C (second compound 10 µM, first compound 0.01 µM): 94.9%; viability, T/C [30]: 111%; viability, T/C [31]: 75.2%; viability, T/C [32]: 56.4%; viability, T/C [33]: 55.3%; viability, T/C [34]: 62% |
| Cn1nccc1Nc1nccc(-c2cc3c(s2)C(C)(C)N(CCN2CCOCC2)C3=O)n1 | – | – | – | – | – | – | – | – | – | – | – | – | – | – | – | – | – | – | – | – | viability, T/C (compound 0.0316 µM): 99.1% [middle of 5 runs]; viability, T/C (compound 0.1 µM): 96.2% [middle of 5 runs]; viability, T/C (compound 0.316 µM): 100% [middle of 4 runs]; viability, T/C (compound 1 µM): 84.1% [middle of 5 runs]; viability, T/C (compound 3.16 µM): 53.9% [middle of 5 runs]; viability, T/C (compound 10 µM): 29.3% [middle of 5 runs]; IC50 (curve of compound): 3.52 µM [middle of 5 runs] |
| C=CC(=O)N1CCN(c2nc(=O)n(-c3c(C)ccnc3C(C)C)c3nc(-c4c(O)cccc4F)c(F)cc23)C(C)C1 (stereo unspecified) | – | – | – | – | – | – | – | – | – | – | – | – | – | – | – | – | – | – | – | – | viability, T/C (compound 0.316 µM): 93.1% [middle of 17 runs]; IC50 (compound alone, run of 08/19/2021): > 10 µM; IC50 (compound alone, run of 08/26/2021): > 10 µM; IC50 (compound alone, run of 09/02/2021): > 10 µM |
| COC(=O)c1ccc2c(C(=Nc3ccc(N(C)C(=O)CN4CCN(C)CC4)cc3)c3ccccc3)c(O)[nH]c2c1 + C=CC(=O)N1CCN(c2nc(=O)n(-c3c(C)ccnc3C(C)C)c3nc(-c4c(O)cccc4F)c(F)cc23)C(C)C1 | > 10 | 5.61 | 5.47 | 4.8 | 4.3 | 124 | 115 | 98.4 | 98.2 | 86.8 | 100 | 99.4 | 92.3 | 92.7 | 83.7 | 121 | 108 | 96.7 | 92.9 | 75.5 | viability, T/C [11]: 60.1%; viability, T/C [17]: 15.8%; viability, T/C [23]: 26.1%; viability, T/C [24]: 104%; viability, T/C [25]: 108%; viability, T/C [26]: 91%; viability, T/C [27]: 90.2%; viability, T/C [28]: 76.2%; viability, T/C [29]: 9.17%; viability, T/C [30]: 111%; viability, T/C [31]: 116%; viability, T/C [32]: 101%; viability, T/C [33]: 86.9%; viability, T/C [34]: 73.4%; viability, T/C [35]: 0.56% |
